Assay results: publication PMC6770006, “Novel Heat Shock Protein 90 Inhibitors Suppress P-Glycoprotein Activity and Overcome Multidrug Resistance in Cancer Cells” (International Journal of Molecular Sciences, 2019)

Key:
DLD1 cells = assay: MTT assay, cell growth inhibition, DLD1; type: cell-based; details: Homo sapiens, DLD-1, 72 h
Method: (§1) A series of 3-aryl-naphtho[2,3-d]isoxazole-4,9-diones were synthesized (Scheme 1, Figure 1) and their growth inhibition activity was tested in vitro on human non-small cell lung carcinoma NCI-H460, colorectal carcinoma DLD1 and their corresponding MDR cells (NCI-H460/R and DLD1-TxR, respectively), as well as normal embryonic lung fibroblasts MRC-5. The differences in cell growth inhibition between cancer and normal cells obtained by the MTT assay after 72 h treatment are presented in Table 1. The effect of compounds is presented as IC50 values that correspond to the 50% of cell growth inhibition.
(§2) Cell viability was assessed by the MTT assay (AppliChem GmbH, Darmstadt, Germany). Cells grown in 25 cm^2 tissue flasks were trypsinized and 1000 cells/well were seeded into flat-bottomed 96-well tissue culture plates and incubated overnight. Subsequently, the cells were treated with increasing concentrations of Hsp90 inhibitors for 72 h: compound 3 (0.1–2.5 µM), compound 4 (0.25–5 µM), compound 5 (0.5–25 µM), compound 6 (50–1000 nM), compound 7 (10–250 nM), compound 8 (0.25–5 µM), compound 9 (10–250 nM), compound 10 (0.5–25 µM), compound 13 (0.5–10 µM), compound 14 (1–25 µM), and compound 15 (10–250 nM). […] After treatment, MTT was added to each well in a final concentration of 0.2 mg/mL for 4 h. Formazan product was dissolved in 200 µl of DMSO, and the absorbance was measured at 540 nm using an automatic LKB 5060-006 Micro Plate Reader (Vienna, Austria). IC50 value was defined as a concentration of the drug that inhibited cell growth by 50% and was calculated by nonlinear regression analysis using GraphPad Prism 6.0 for Windows (La Jolla, CA, USA). Relative selectivity towards cancer cells was calculated as a relation between IC50 value obtained in MRC-5 cells and an average IC50 value from four tested cancer cell lines.

DLD1-TxR cells = assay: MTT assay, cell growth inhibition, DLD1-TxR (MDR); type: cell-based, human; details: 72 h; for IC50: Homo sapiens, MDR cells
Method: as §1
Human colorectal carcinoma (DLD1), non-small cell lung carcinoma (NCI-H460), and normal embryonic lung fibroblast (MRC-5) cell lines were purchased from the American Type Culture Collection, Rockville, MD. P-gp overexpressing multidrug resistant DLD1-TxR cells were selected by continuous exposure to stepwise increasing concentrations of paclitaxel from DLD1 cells, while NCI-H460/R cells were selected from NCI-H460 cells after DOX selective pressure. MDR cancer cell lines, DLD1-TxR and NCI-H460/R, and their sensitive counterparts were maintained in RPMI 1640 medium supplemented with 10% FBS, 2 mM L-glutamine, and 10,000 U/mL penicillin, 10 mg/mL streptomycin, 25 mg/mL amphotericin B solutions. MRC-5 cells were cultured in DMEM supplemented with 10% FBS, 4 g/L glucose, 2 mM L-glutamine and 5000 U/mL penicillin, 5 mg/mL streptomycin solution. All cell lines were sub-cultured at 72 h intervals using 0.25% trypsin/EDTA and seeded into a fresh medium at 8000 cells/cm^2. All cell lines were maintained at 37 °C in a humidified 5% CO2 atmosphere.
as §2

P-gp [1] = molecular target: T1, P-gp (Homo sapiens, UniProt P08183); assay: P-gp ATPase activity assay (Pgp-Glo); type: biochemical; set-up: purchased Promega; details: 5: 5, 10, 20 µM; 7 and 9: 100, 250, 500 nM; Figure 5a
Method: P-gp relies on the ATP hydrolysis energy to extrude the substrate outside the cell and compounds that interact with P-gp can stimulate or inhibit its ATPase activity. Compounds that are P-gp substrates usually stimulate its ATPase activity. Pgp-Glo™ assay system (Promega, Madison, WI, USA) detects the compound’s effect on recombinant human P-gp in a cell membrane fraction. P-gp ATPase activity was measured using luminescent Pgp-Glo™ assay kit according to manufacturer’s instructions. Briefly, ATP was first incubated with P-gp; then the P-gp ATPase reaction was stopped, and the remaining unmetabolized ATP was detected as a luciferase-generated luminescent signal. Pgp-dependent decreases in luminescence reflect ATP consumption by P-gp; thus, the greater the decrease in signal, the higher the P-gp activity. […] Verapamil and sodium orthovanadate, supplied in the assay kit were used as positive controls. Verapamil is a P-gp substrate and competitive inhibitor, and sodium orthovanadate is a noncompetitive inhibitor of P-gp ATPase activity. The luminescence of samples treated with increasing concentrations of compound 5 (5 µM, 10 µM and 20 µM), compound 7 (100 nM, 250 nM and 500 nM) and compound 9 (100 nM, 250 nM and 500 nM), was measured with a luminometer microplate reader (CHAMELEON™V, Hidex, Turku, Finland).

P-gp [2] = molecular target: T1, P-gp; assay: Rhodamine 123 accumulation assay (P-gp activity, flow cytometry); type: cell-based; set-up: P-gp overexpressing multidrug resistant DLD1-TxR cells were selected by continuous exposure to stepwise increasing concentrations of paclitaxel from DLD1 cells; endogenous in cells; host or cells: NCI-H460/R and DLD1-TxR (drug-selected MDR human cancer cells); details: NCI-H460/R and DLD1-TxR, 30 min, Figure 3b

T1 sequence (P08183 whole entry): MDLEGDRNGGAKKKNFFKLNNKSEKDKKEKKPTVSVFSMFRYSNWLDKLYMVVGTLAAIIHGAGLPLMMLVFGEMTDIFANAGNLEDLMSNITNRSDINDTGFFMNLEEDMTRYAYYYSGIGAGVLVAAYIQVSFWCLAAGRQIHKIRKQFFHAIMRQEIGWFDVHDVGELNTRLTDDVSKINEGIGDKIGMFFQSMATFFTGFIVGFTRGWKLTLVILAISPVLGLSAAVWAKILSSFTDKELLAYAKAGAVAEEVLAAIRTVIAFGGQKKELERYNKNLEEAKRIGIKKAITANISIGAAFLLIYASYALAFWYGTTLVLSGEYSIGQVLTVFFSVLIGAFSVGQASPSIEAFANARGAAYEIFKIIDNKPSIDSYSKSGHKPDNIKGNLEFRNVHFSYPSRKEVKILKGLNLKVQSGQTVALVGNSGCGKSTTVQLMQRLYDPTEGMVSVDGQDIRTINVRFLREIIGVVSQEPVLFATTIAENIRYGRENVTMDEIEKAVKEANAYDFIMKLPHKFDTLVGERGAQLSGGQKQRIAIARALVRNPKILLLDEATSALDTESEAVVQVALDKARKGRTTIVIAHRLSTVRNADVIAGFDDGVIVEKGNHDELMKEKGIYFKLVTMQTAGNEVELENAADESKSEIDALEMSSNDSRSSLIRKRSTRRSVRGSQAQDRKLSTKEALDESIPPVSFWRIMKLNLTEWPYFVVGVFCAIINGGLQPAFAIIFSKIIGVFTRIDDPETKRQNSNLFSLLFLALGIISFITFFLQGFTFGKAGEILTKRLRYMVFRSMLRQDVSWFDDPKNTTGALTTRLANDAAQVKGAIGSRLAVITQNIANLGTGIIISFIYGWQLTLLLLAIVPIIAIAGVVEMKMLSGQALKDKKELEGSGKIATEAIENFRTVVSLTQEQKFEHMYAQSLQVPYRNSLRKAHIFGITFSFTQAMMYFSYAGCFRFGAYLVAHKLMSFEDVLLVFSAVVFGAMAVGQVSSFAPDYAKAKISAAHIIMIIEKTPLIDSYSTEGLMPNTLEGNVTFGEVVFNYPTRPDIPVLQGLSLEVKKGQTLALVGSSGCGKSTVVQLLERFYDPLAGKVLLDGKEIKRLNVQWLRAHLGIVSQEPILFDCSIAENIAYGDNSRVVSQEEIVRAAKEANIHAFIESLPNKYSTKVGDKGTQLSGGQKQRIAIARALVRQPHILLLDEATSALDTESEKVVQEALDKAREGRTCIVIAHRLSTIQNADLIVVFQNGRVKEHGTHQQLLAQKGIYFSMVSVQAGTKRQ

Row | IC50 (DLD1 cells) | IC50 (DLD1-TxR cells) | Effect on P-gp ATPase activity (P-gp [1]) | Concentration dependence of P-gp inhibition (Rho 123 accumulation) (P-gp [2]) | Compound | Efficacy in MDR DLD1-TxR cells compared with sensitive DLD1 (DLD1-TxR cells)
1 | 45 ± 1 nM | 50 ± 1 nM | significant inhibition | concentration dependent effect | O=C1c2ccccc2C(=O)c2c(-c3cccnc3)noc21 [Compound 9] | –
2 | 156 ± 4 nM | 138 ± 3 nM | potent dose-dependent inhibition | concentration dependent effect | O=C1c2ccccc2C(=O)c2c(-c3ccncc3)noc21 [Compound 7] | evaded resistance in both MDR cancer cell lines
3 | 5680 ± 163 nM | 11100 ± 304 nM | smallest effect on ATPase activity | concentration dependent effect | O=C1c2ccccc2C(=O)c2c(-c3ccccc3O)noc21 [Compound 5] | further compromised in the presence of MDR phenotype
